US20240294881A1, “CELL CULTURE SUPPLEMENT FOR PRODUCING STEM CELLS, AND METHOD FOR PRODUCING STEM CELLS” (OPTICELL, INC, priority 2021, published 2024)

Tests used:
Experiment in all cases: Real-time PCR of cancer stem cell and undifferentiated stem cell marker genes in cancer cell spheroids
Type in all cases: cell-based, human
[1] = test system: ES2 ovarian cancer cells; conditions: for CD24 gene expression level (increase vs control) / CD44 gene expression level (increase vs control) / NANOG gene expression level (increase vs control) / OCT4 gene expression level (increase vs control) / SOX2 gene expression level (increase vs control): control no supplement, 2D adhesion proliferation, day 4 = 1.0
Description: (§1) A culture vessel treated with the cell culture supplement was prepared in the same manner as in Example 7, and the same three types of cancer cells as those in Example 7 were cultured. On day 4 and day 15 after the start of culture, spheroids of each of the three types of cancer cells were taken from the culture vessel and collected in an individual 15-mb centrifuge tube, followed by washing with phosphate buffered saline (−). After removal of the medium, cancer cells cultured in the plate free of the cell culture supplement (control) were washed with PBS (−), detached from the plate with 0.05% trypsin-EGTA and dissociated. The cancer cells were then collected in a 15-mL centrifuge tube and washed again with PBS (−). mRNA was extracted from the collected spheroids and control cells, and the expression of cancer stem cell marker genes was analyzed by real-time PCR.
(§2) Specifically, a NucleoZOL reagent (Macherey-Nagel) reagent was added to each type of cells, and RNA was extracted according to the protocol recommended by the reagent manufacturer and used as template RNA for detecting stem cell markers. For real-time PCR analysis, PCR probes from QuantiFast Probe RT-PCR Kits (QIAGEN; No. 204454) and TaqMan Gene Expression Assay Probe (Thermo Fisher Scientific) were used. PCR analysis was performed with a Rotor-Gene Q (QIAGEN) apparatus. For probes for detecting the expression of cancer stem cell marker genes, the following three PCR probes were used: CD24 (mucin-type glycoprotein, ligand for P-selectin, Oncogene), CD44 (cell surface glycoprotein involved cell-cell interaction, adhesion and migration, cancer stem cell marker), CD133 (five transmembrane glycoprotein, stem cell marker and cancer stem cell marker protein). B-actin was used as an endogenous control gene. For probes for detecting the expression of undifferentiated stem cell marker genes, three transcription factors, SOX2 (sex-determining region Y-box 2), OCT4 (octamer binding transcription factor 4), and NANOG (homeodomain transcription factor), which are used in the production of iPS cells, were used; and β-actin was used as the endogenous control gene. In the gene expression analysis, relative quantification was performed according to the ΔΔCt method (Delta Delta Ct method). The results of analysis according to the ΔΔCt method show the amount of a gene expressed by control cells under the conditions of “no cell culture supplement, 2D adhesion proliferation, day 4” as “1.0” in relative terms, and the increase rate in “the expression level in spheroid proliferation on day 15” was determined by comparison (FIGS. 23 to 25).
(§3) Coating of a culture vessel was completed in the same manner as in Examples 7 and 11, and three types of cancer cells, A549 cells, ES2 cells, and 143B cells, were cultured. For probes for detecting the expression of undifferentiated stem cell marker genes, the following three transcription factors were used: SOX2 (sex-determining region Y-box 2), OCT4 (octamer binding transcription factor 4), and NANOG (homeodomain transcription factor); and β-actin was used as an endogenous control gene. In the gene expression analysis, relative quantification was performed according to the ΔΔCt method (Delta Delta Ct method). The results of analysis according to the ΔΔCt method show the amount of a gene expressed by control cells under the conditions of “no cell culture supplement, 2D adhesion proliferation, day 4” as “1.0” in relative terms, and the increase rate in “the expression level in spheroid proliferation on day 15” was determined by comparison (FIGS. 26 to 28).

[2] = test system: A549 lung cancer cells; conditions: control no supplement, 2D adhesion proliferation, day 4 = 1.0
Description: as §1, §2, §3

[3] = test system: HOS-143B osteosarcoma cells; conditions: control no supplement, 2D adhesion proliferation, day 4 = 1.0
Description: as §1, §2, §3

(Pro-Hyp-Gly)n [cell culture supplement]
CD24 gene expression level (increase vs control) ([1]; day 4 of spheroid culture): 11.6 fold
CD44 gene expression level (increase vs control) ([1]; day 4 of spheroid culture): 1.3 fold
NANOG gene expression level (increase vs control) ([1]; day 4 of spheroid culture): 3.9 fold
OCT4 gene expression level (increase vs control) ([1]; day 4 of spheroid culture): 2.6 fold
SOX2 gene expression level (increase vs control) ([1]; day 4 of spheroid culture): 1.1 fold
CD133 gene expression level (increase vs day 4 spheroid culture) ([1]; day 15 of spheroid culture, CD133 on day 4 in spheroid culture taken as control value (1.0), not detected in adhesion proliferation cells): 8.5 fold
CD24 gene expression level (increase vs control) ([1]; day 15 of spheroid culture): 63.2 fold
CD44 gene expression level (increase vs control) ([1]; day 15 of spheroid culture): 2.9 fold
NANOG gene expression level (increase vs control) ([1]; day 15 of spheroid culture): 10.9 fold
OCT4 gene expression level (increase vs control) ([1]; day 15 of spheroid culture): 4.6 fold
SOX2 gene expression level (increase vs control) ([1]; day 15 of spheroid culture): 3.4 fold
CD24 gene expression level (increase vs control) ([2]; day 4 of spheroid culture): 2.2 fold
CD44 gene expression level (increase vs control) ([2]; day 4 of spheroid culture): 1.6 fold
CD133 gene expression level (increase vs control) ([2]; day 4 of spheroid culture): 3.4 fold
NANOG gene expression level (increase vs control) ([2]; day 4 of spheroid culture): 10.6 fold
OCT4 gene expression level (increase vs control) ([2]; day 4 of spheroid culture): 1.6 fold
SOX2 gene expression level (increase vs control) ([2]; day 4 of spheroid culture): 5.0 fold
CD24 gene expression level (increase vs control) ([2]; day 15 of spheroid culture): 4.2 fold
CD44 gene expression level (increase vs control) ([2]; day 15 of spheroid culture): 2.9 fold
CD133 gene expression level (increase vs control) ([2]; day 15 of spheroid culture): 13.5 fold
NANOG gene expression level (increase vs control) ([2]; day 15 of spheroid culture): 55.7 fold
OCT4 gene expression level (increase vs control) ([2]; day 15 of spheroid culture): 3.7 fold
SOX2 gene expression level (increase vs control) ([2]; day 15 of spheroid culture): 6.0 fold
CD24 gene expression level (increase vs control) ([3]; day 4 of spheroid culture): 1.34 fold
CD44 gene expression level (increase vs control) ([3]; day 4 of spheroid culture): 2.3 fold
CD133 gene expression level (relative to control, printed as decreased) ([3]; day 4 of spheroid culture): 0.3 fold
NANOG gene expression level (increase vs control) ([3]; day 4 of spheroid culture): 1.6 fold
OCT4 gene expression level (increase vs control) ([3]; day 4 of spheroid culture): 2.5 fold
SOX2 gene expression level (increase vs control) ([3]; day 4 of spheroid culture): 3.5 fold
CD24 gene expression level (increase vs control) ([3]; day 15 of spheroid culture): 1.2 fold
CD44 gene expression level (increase vs control) ([3]; day 15 of spheroid culture): 1.9 fold
CD133 gene expression level (increase vs control) ([3]; day 15 of spheroid culture): 2.1 fold
NANOG gene expression level (increase vs control) ([3]; day 15 of spheroid culture): 1.4 fold
OCT4 gene expression level (increase vs control) ([3]; day 15 of spheroid culture): 2.4 fold
SOX2 gene expression level (increase vs control) ([3]; day 15 of spheroid culture): 1.6 fold
